Experimental data published in patent publication US20240327374A1, “LENALIDOMIDE PROCESS” (priority 2023, published 2024).

Columns and labels:
Format in all cases: physicochemical
[1] = Six months stability of crystalline Form SRA: comparative XRPD pattern (polymorphic stability); settings: after 6 months under 25° C.±2/65±5% RH and 40° C.±2/75±5% RH
Text: (§1) Inventors of the present application performed six months stability for the novel crystalline Form SRA according to the following temperature and relative humidity conditions: […]

[2] = Six months stability of crystalline Form SRA: moisture content by KF method
Text: as §1

[3] = Six months stability of crystalline Form SRA: assay / purity by HPLC
Text: as §1

- Crystalline form by comparative XRPD, initial stage vs after stability [1]: crystalline form remains unchanged
- Moisture Content (by KF method) Not more than 0.5% w/w ([2]; A = 25° C.±2/65±5% RH, 1M): 0.22 % w/w
- Moisture Content (by KF method) Not more than 0.5% w/w ([2]; A = 25° C.±2/65±5% RH, 2M): 0.22 % w/w
- Moisture Content (by KF method) Not more than 0.5% w/w ([2]; A = 25° C.±2/65±5% RH, 3M): 0.23 % w/w
- Moisture Content (by KF method) Not more than 0.5% w/w ([2]; A = 25° C.±2/65±5% RH, 6M): 0.23 % w/w
- Moisture Content (by KF method) Not more than 0.5% w/w ([2]; A = 25° C.±2/65±5% RH, Initial): 0.23 % w/w
- Moisture Content (by KF method) Not more than 0.5% w/w ([2]; B = 40° C.±2/75±5% RH, 1M): 0.21 % w/w
- Moisture Content (by KF method) Not more than 0.5% w/w ([2]; B = 40° C.±2/75±5% RH, 2M): 0.22 % w/w
- Moisture Content (by KF method) Not more than 0.5% w/w ([2]; B = 40° C.±2/75±5% RH, 3M): 0.22 % w/w
- Moisture Content (by KF method) Not more than 0.5% w/w ([2]; B = 40° C.±2/75±5% RH, 6M): 0.22 % w/w
- Moisture Content (by KF method) Not more than 0.5% w/w ([2]; B = 40° C.±2/75±5% RH, Initial): 0.23 % w/w
- Assay (by HPLC; on anhydrous basis) Between 98.0 to 102.0% w/w ([3]; A = 25° C.±2/65±5% RH, 1M): 99.50 % w/w
- Assay (by HPLC; on anhydrous basis) Between 98.0 to 102.0% w/w ([3]; A = 25° C.±2/65±5% RH, 2M): 99.41 % w/w
- Assay (by HPLC; on anhydrous basis) Between 98.0 to 102.0% w/w ([3]; A = 25° C.±2/65±5% RH, 3M): 99.55 % w/w
- Assay (by HPLC; on anhydrous basis) Between 98.0 to 102.0% w/w ([3]; A = 25° C.±2/65±5% RH, 6M): 99.47 % w/w
- Assay (by HPLC; on anhydrous basis) Between 98.0 to 102.0% w/w ([3]; A = 25° C.±2/65±5% RH, Initial): 100.38 % w/w
- Assay (by HPLC; on anhydrous basis) Between 98.0 to 102.0% w/w ([3]; B = 40° C.±2/75±5% RH, 1M): 99.77 % w/w
- Assay (by HPLC; on anhydrous basis) Between 98.0 to 102.0% w/w ([3]; B = 40° C.±2/75±5% RH, 2M): 99.64 % w/w
- Assay (by HPLC; on anhydrous basis) Between 98.0 to 102.0% w/w ([3]; B = 40° C.±2/75±5% RH, 3M): 100.02 % w/w
- Assay (by HPLC; on anhydrous basis) Between 98.0 to 102.0% w/w ([3]; B = 40° C.±2/75±5% RH, 6M): 99.47 % w/w
- Assay (by HPLC; on anhydrous basis) Between 98.0 to 102.0% w/w ([3]; B = 40° C.±2/75±5% RH, Initial): 100.38 % w/w
- HPLC purity retained in the stability study ([3]; six months stability study): exceeding 99.9 % w/w by HPLC
SMILES: Nc1cccc2c1CN(C1CCC(=O)NC1=O)C2=O (stereo not shown) [Form SRA, 3-(7-amino-3-oxo-1H-isoindol-2-yl) piperidine-2,6-dione]
